Measurements published in patent publication US4731370A, “Pyridyl ester containing 1,4-dihydropyridine derivatives and salts thereof and pharmaceutical composition containing the same” (Toyama Chemical Co., Ltd., priority 1984, dated 1988).

Legend:
[1] = tested on: coronary vessel (isolated guinea pig heart); test: Coronary vasodilating activity (isolated perfused guinea pig heart, coronary effluent); set-up: species or system guinea pig (Hartley strain); details: Langendorff perfusion, 0.1 ml into aorta, hydrochloride
Experimental: (§1) The compounds of this invention to be tested were used in the form of a hydrochloride.
The heart of a guinea pig (Hartley strain, male, 500-700 g, 3 heads per group) was isolated and set in the Landendorff perfusing apparatus. About 0.5% defibrinated blood was fed to the apparatus, and the Krebs bicarbonate solution, into which a mixed gas consisting of 95% of O2 and 5% of CO2 had been bubbled was perfused over the heart, after which a 1 mg/ml solution of the test compound in an aqueous solution containing 10% by volume of dimethylsulfoxide and 10% of polyoxyethylfatty acid glyceride [Cremophor EL manufactured by Sigma] was prepared, diluted with a saline solution to the desired concentration, and then administered into the heart in an amount of 0.1 ml through the rubber tube attached to the cannula inserted retrogressively into the aorta. The vasodilating activity was determined by measuring the amount of the solution effluent from the coronary vessel after passing through the aorta by means of an electric drop counter (universal drop counter manufactured by Natsume Seisakusho) and indicated as ED50 value which is the amount necessary for the amount of the effluent solution to increase 50% as compared with those before addition of the test compound.

[2] = tested on: Thromboxane-Synthesizing Enzyme; test: Thromboxane-synthesizing enzyme-inhibitory activity (MDA production in platelet-rich plasma after oral dosing); type: in vivo, rat (Wistar strain); details: rat, 3 mg/kg, blood after one hour
Experimental: as §1
To a rat (Wistar strain, male, 300-350 g, 4 heads per group) which had been starved overnight was orally administered a test compound solution, and blood was collected from the abdominal aorta using citric acid after one hour. Two milliliters of a 1×10^9 /ml platelet-rich plasma (PRP) was preincubated at 37° C. for 2 minutes. Subsequently, 0.1 ml of 10 mM sodium archidonate was added, and the resulting mixture was subjected to reaction for 6 minutes, after which indomethacin was added thereto to terminate the reaction. The reaction mixture was subjected to deproteinization treatment and reacted with thiobarbituric acid (TBA) reagent, after which the reaction mixture was subjected to extraction with 3 ml of n-butanol. The resulting extract was subjected to colorimetry (λ=532 nm) to determine the amount of malondialdehyde (MDA) produced. As to the platelet-poor plasma (PPP) obtained from the same rat as above, the same procedure as above was repeated to determine the amount of MDA produced, and the difference between the two is indicated as MDA value. Comparing with the MDA values of the control group, the MDA production-inhibition (%) was determined.
The test compounds 1-9 were adjusted to the desired concentrations with water and the test compounds 11-33 and nicardipine were adjusted to a concentration of 5 mg/ml with an aqueous solution containing 10% of each of dimethyl sulfoxide and Cremophor and then diluted with water to the desired concentrations.

[3] = tested on: mouse pulmonary infraction model; test: Antithrombosis activity, mouse pulmonary infraction model, prevention of death and paralysis (0.10 ml epinephrine/collagen); type: in vivo, mouse (ICR strain); details: 1 h; mouse, oral, 10 mg/kg, challenge after one hour; control 25.7%; read-out: Preventive percentage of death + paralysis for 10 minutes or more
Experimental: as §1
According to the G. DiMinno and M. J. Silver method [J. Pharmacol. Exp. Therap., 225 (1) 57-60 (1983)], a solution of the compound to be tested was orally administered to a mouse (ICR strain, male, 4 weeks old), and 0.15 ml of a mixed solution of epinephrine (100 μM) and collagen (150 μg/ml) was intravenously administered to the mouse after one hour, after which the paralytic time was measured. Comparing the paralytic time of the control group, the paralytic time-shortening percentage due to the compound to be tested was determined. The results obtained are shown in Table 4, in which the case where the paralytic time was 15 minutes was calculated as death.
Moreover, the same experiment was repeated, except that 0.10 ml of a mixed solution of epinephrine (100 μM) and collagen (150 μg/ml) was intravenously administered to the mouse and the effect of preventing the appearance of death and a case where the paralytic time was 10 minutes or more was checked and the results thereof are shown in Table 5.
(§2) The test compounds shown in Table 4 were adjusted to the desired concentrations with water, and the test compounds shown in Table 5 were adjusted to a concentration of 5 mg/ml with an aqueous solution containing 10% by volume of each of dimethyl sulfoxide and Cremophor, and then diluted with water to the desired concentrations.

[4] = tested on: vertebral artery blood flow of a dog; test: Vertebral artery blood flow increasing activity; type: in vivo, dog (mongrel); details: i.v., amount with same activity as 1 mg/kg (i.v.) papaverine hydrochloride, ratio to papaverine hydrochloride
Experimental: as §1
The vertebral artery blood flow of a dog (mongrel, 12-22 kg, 2-3 heads per group) anesthetized with pentobarbital sodium (30 mg/kg, i.v.) was measured by means of an electromagnetic flow meter (MFV-2100 manufactured by Nihon Kohden Kogyo).
The test compounds 1, 3 and 10 were adjusted to a concentration of 1 mg/ml with distilled water, and then diluted with a saline solution to the desired concentrations, after which the thus diluted solutions were intravenously administered, and the test compounds 12, 15, 18, 19, 20, 24, 29, 30, 32 and 33 were formed into solutions in the same manner as in Item 1 above and then intravenously administered.

[5] = Acute toxicity, intravenous, mice; details: mouse, in vivo, mice (ICR, male, 4 weeks old, 5 per group)
[6] = tested on: mouse pulmonary infraction model; test: Antithrombosis activity, mouse pulmonary infraction model, paralytic time-shortening (0.15 ml epinephrine/collagen); type: in vivo, mouse (ICR strain); details: 1 h, oral, 10 mg/kg, challenge after one hour, 10 mice, read-out: Paralytic time-shortening percentage
Experimental: as §1
Comparing the paralytic time of the control group, the paralytic time-shortening percentage due to the compound to be tested was determined.
as §2

| SMILES | ED50 (amount necessary for the amount of the effluent solution to increase 50%) [1] [μg/i.c.] | MDA production-inhibition [2] [%] | responders at 10 mg/kg [3] [%] | Effect ratio [4] | LD50 [5] [mg/kg] | inhibition in vivo at 10 mg/kg [6] [%] |
| --- | --- | --- | --- | --- | --- | --- |
| CC1=C(C(=O)OCCOC/C=C/c2ccc(Cc3cccnc3)cc2)C(c2cccc([N+](=O)[O-])c2)C(C(=O)OCCN(C)Cc2ccccc2)=C(C)N1 (stereo not shown) [compound 23] | 0.019 | – | – | – | – | – |
| CCOC(=O)C1=C(C)NC(C)=C(C(=O)OCCOCCc2ccc(Cc3cccnc3)cc2)C1c1cccc([N+](=O)[O-])c1 (stereo not shown) [compound 27] | – | 35.7 | 77.8 | – | – | – |
| CCOC(=O)C1=C(C)NC(C)=C(C(=O)OCC(C)(C)COC/C(C)=C/c2ccc(Cc3cccnc3)cc2)C1c1cccc([N+](=O)[O-])c1 (stereo not shown) [compound 33] | – | 41.5 | – | 333 | – | – |
| CCOC(=O)C1=C(C)NC(C)=C(C(=O)OCCOCCCc2ccc(Cn3ccnc3)cc2)C1c1cccc([N+](=O)[O-])c1 (stereo not shown) [compound 11] | – | 37.8 | – | – | – | – |
| CCOC(=O)C1=C(C)NC(C)=C(C(=O)OCCOC/C=C/c2ccc(Cc3cccnc3)cc2)C1c1cccc([N+](=O)[O-])c1 (stereo not shown) [compound 16] | 0.0105 | 31.6 | – | – | ≥ 75 | – |
| COC(=O)C1=C(C)NC(C)=C(C(=O)OCCOC/C=C/c2ccc(Cc3cccnc3)cc2)C1c1ccccc1C(F)(F)F (stereo not shown) [compound 26] | – | – | 90 | – | – | – |
| CCOC(=O)C1=C(C)NC(C)=C(C(=O)OCCOCCCc2ccc(Oc3cccnc3)cc2)C1c1cccc([N+](=O)[O-])c1 (stereo not shown) [compound 20] | 0.024 | – | 70 | 535 | – | – |
| CC1=C(C(=O)OCCN(C)C/C(C)=C/c2ccc(Cc3cccnc3)cc2)C(c2cccc(Cl)c2Cl)C(C(=O)OC(C)C)=C(C)N1 (stereo not shown) [compound 5] | – | 57.9 | – | – | – | 93.9 |
| CCOC(=O)C1=C(C)NC(C)=C(C(=O)OCCOCCCc2ccc(Cc3cccnc3)cc2)C1c1cccc([N+](=O)[O-])c1 (stereo not shown) [compound 18] | 0.026 | 40.9 | – | 233 | – | – |
| CCOC(=O)C1=C(C)NC(C)=C(C(=O)OCCCCOC/C(C)=C/c2ccc(Cc3cccnc3)cc2)C1c1cccc([N+](=O)[O-])c1 (stereo not shown) [compound 30] | – | – | – | 397 | ≥ 50 | – |
| CC1=C(C(=O)OCCN(C)C/C(C)=C/c2ccc(Cc3cccnc3)cc2)C(c2ccccc2C(F)(F)F)C(C(=O)OC(C)C)=C(C)N1 (stereo not shown) [compound 6] | – | 60.6 | – | – | – | 87.9 |
| CC1=C(C(=O)OCCN(C)C/C(C)=C/c2ccc(Cc3cccnc3)cc2)C(c2cccc([N+](=O)[O-])c2)C(C(=O)OC(C)C)=C(C)N1 (stereo not shown) [compound 1] | – | 59.4 | – | 238 | – | 52.3 |
| CCOC(=O)C1=C(C)NC(C)=C(C(=O)OCC(C)COC/C(C)=C/c2ccc(Cc3cccnc3)cc2)C1c1cccc([N+](=O)[O-])c1 (stereo not shown) [compound 31] | – | 50.5 | – | – | – | – |
| COC(=O)C1=C(C)NC(C)=C(C(=O)OCCOC/C=C/c2ccc(Cc3cccnc3)cc2)C1c1cccc([N+](=O)[O-])c1 (stereo not shown) [compound 22] | 0.016 | – | – | – | – | – |
| CCOC(=O)C1=C(C)NC(C)=C(C(=O)OCCOC/C(C)=C/c2ccc(Cc3cccnc3)cc2)C1c1cccc([N+](=O)[O-])c1 (stereo not shown) [compound 12] | 0.026 | 48.1 | 77.8 | 345 | ≥ 75 | – |
| CC1=C(C(=O)OCCN(C)C/C=C/c2ccc(Cn3ccnc3)cc2)C(c2cccc([N+](=O)[O-])c2)C(C(=O)OC(C)C)=C(C)N1 (stereo not shown) [compound 9] | – | 47.2 | – | – | ≥ 30 | – |
| CCOC(=O)C1=C(C)NC(C)=C(C(=O)OCCOC/C(C)=C/c2ccc(Oc3cccnc3)cc2)C1c1cccc([N+](=O)[O-])c1 (stereo not shown) [compound 19] | 0.017 | – | 77.8 | 550 | ≥ 75 | – |
| COC(=O)C1=C(C)NC(C)=C(C(=O)OCCOC/C(C)=C/c2ccc(Cc3cccnc3)cc2)C1c1cccc([N+](=O)[O-])c1 (stereo not shown) [compound 17] | 0.012 | 58.6 | 100 | – | ≥ 75 | – |
| COCCOC(=O)C1=C(C)NC(C)=C(C(=O)OCCN(C)C/C(C)=C/c2ccc(Cc3cccnc3)cc2)C1c1cccc([N+](=O)[O-])c1 (stereo not shown) [compound 3] | – | 65.8 | – | 385 | – | – |
| CC1=C(C(=O)OCCOC/C(C)=C/c2ccc(Cc3cccnc3)cc2)C(c2cccc([N+](=O)[O-])c2)C(C(=O)OC(C)C)=C(C)N1 (stereo not shown) [compound 29] | 0.019 | 56.8 | 90 | 426 | – | – |
| COC(=O)C1=C(C)NC(C)=C(C(=O)OCC(C)(C)COC/C(C)=C/c2ccc(Cc3cccnc3)cc2)C1c1cccc([N+](=O)[O-])c1 (stereo not shown) [compound 32] | – | – | – | 417 | – | – |
| CC1=C(C(=O)OCCOC/C=C/c2ccc(Cc3cccnc3)cc2)C(c2cccc([N+](=O)[O-])c2)C(C(=O)OC(C)C)=C(C)N1 (stereo not shown) [compound 24] | – | – | 90 | 286 | – | – |
| CCOC(=O)C1=C(C)NC(C)=C(C(=O)OCCOC/C(C)=C/c2ccc(Cc3cccnc3)s2)C1c1cccc([N+](=O)[O-])c1 (stereo not shown) [compound 21] | – | – | 80 | – | ≥ 75 | – |
| CCOC(=O)C1=C(C)NC(C)=C(C(=O)OCCOCc2ccc(Cc3cccnc3)cc2)C1c1cccc([N+](=O)[O-])c1 (stereo not shown) [compound 15] | 0.0092 | – | – | 238 | – | – |
| CCOC(=O)C1=C(C)NC(C)=C(C(=O)OCCSC/C=C/c2ccc(Cc3cccnc3)cc2)C1c1cccc([N+](=O)[O-])c1 (stereo not shown) [compound 28] | – | 31.2 | – | – | – | – |
| CCOC(=O)C1=C(C)NC(C)=C(C(=O)OCCOC/C=C/c2ccc(Cn3ccnc3)cc2)C1c1cccc([N+](=O)[O-])c1 (stereo not shown) [compound 13] | 0.036 | 47.2 | – | – | – | – |
| CCOC(=O)C1=C(C)NC(C)=C(C(=O)OCCN(C)C/C(C)=C/c2ccc(Cc3cccnc3)cc2)C1c1cccc([N+](=O)[O-])c1 (stereo not shown) [compound 4] | – | 53.6 | – | – | – | 38.6 |
| CCOC(=O)C1=C(C)NC(C)=C(C(=O)OCCOCc2ccc(Cn3ccnc3)cc2)C1c1cccc([N+](=O)[O-])c1 (stereo not shown) [compound 14] | 0.023 | – | – | – | – | – |
